# Measurements from patent publication US20260132129A1 (Genesis Therapeutics, Inc., priority 2022, published 2026).
# Molecular target: T1, PI3Kα H1047R (T47D cells) (Homo sapiens, UniProt P42336, H1047R)
# T1 construct: endogenous in cells; host or cells: T47D cells
# Test: PI3Kα cellular assay: pAKT HTRF in T47D cells after EGF stimulation
# Type: cell-based
# Settings: for IC50: T47D cells (PI3Kα H1047R), pAKT S473 HTRF, EGF stimulation
# How it was run: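 pAKT read by HTRF in lysates of EGF-stimulated (20 ng/mL, 10 min) T47D H1047R cells. Before stimulation, serum-starved cells (16 h) received compound for 1 h at 37 °C, dosed from 10,000 nM down to 0.5 nM in 3-fold steps.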
# T1 sequence (P42336 whole entry H1047R): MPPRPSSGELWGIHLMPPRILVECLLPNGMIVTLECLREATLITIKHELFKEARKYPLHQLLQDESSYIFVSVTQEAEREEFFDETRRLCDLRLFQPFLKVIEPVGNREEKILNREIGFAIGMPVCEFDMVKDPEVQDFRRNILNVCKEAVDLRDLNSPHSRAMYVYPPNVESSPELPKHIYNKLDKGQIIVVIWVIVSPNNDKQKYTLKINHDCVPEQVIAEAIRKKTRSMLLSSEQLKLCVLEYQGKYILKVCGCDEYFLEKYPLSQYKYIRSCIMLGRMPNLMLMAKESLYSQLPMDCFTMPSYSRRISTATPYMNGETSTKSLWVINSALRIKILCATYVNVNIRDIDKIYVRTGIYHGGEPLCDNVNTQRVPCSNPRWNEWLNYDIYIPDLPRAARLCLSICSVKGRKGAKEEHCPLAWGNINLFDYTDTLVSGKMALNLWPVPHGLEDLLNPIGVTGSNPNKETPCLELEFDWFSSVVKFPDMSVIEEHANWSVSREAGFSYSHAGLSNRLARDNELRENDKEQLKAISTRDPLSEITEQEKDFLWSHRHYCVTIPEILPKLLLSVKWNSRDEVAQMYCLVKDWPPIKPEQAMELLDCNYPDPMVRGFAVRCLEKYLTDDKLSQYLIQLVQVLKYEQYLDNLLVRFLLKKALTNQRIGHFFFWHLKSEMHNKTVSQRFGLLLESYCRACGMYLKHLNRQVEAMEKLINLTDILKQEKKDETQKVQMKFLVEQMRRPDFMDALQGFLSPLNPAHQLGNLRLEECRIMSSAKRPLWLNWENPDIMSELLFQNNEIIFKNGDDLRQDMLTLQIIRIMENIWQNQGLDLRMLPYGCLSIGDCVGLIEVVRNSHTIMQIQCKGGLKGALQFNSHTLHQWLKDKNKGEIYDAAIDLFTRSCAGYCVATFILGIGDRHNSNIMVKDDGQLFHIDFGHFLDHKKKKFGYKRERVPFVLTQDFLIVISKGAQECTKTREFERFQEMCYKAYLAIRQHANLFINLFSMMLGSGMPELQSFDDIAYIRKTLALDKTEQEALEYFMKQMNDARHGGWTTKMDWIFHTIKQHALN
# T1 sequence (P27986 whole entry partner): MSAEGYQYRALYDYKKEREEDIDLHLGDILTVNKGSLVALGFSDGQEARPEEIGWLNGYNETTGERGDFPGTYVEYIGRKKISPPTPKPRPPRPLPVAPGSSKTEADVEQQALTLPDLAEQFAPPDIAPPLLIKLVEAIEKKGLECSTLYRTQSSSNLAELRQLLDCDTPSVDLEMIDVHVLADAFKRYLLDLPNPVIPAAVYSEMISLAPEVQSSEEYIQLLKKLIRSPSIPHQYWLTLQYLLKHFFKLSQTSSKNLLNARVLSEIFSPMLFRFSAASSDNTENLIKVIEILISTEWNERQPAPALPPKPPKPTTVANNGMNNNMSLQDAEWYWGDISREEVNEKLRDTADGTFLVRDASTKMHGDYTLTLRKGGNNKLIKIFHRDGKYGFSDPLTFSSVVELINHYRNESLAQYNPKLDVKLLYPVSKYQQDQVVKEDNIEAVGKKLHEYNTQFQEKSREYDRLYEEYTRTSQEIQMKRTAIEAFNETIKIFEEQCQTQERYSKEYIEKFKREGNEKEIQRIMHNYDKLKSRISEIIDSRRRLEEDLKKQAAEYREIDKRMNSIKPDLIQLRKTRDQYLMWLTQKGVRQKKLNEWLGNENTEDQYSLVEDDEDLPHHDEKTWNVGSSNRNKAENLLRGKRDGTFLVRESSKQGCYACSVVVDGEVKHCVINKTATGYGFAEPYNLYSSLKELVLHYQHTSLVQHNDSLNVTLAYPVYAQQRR
T47D pAKT S473 HTRF IC50 (H1047R): T47D (H1047R) selectivity over SKBR3 (WT),IC50 [nM],Structure (SMILES)
C (C denotes ≤5-fold),,Cc1cc([C@@H](C)Nc2ccccc2C(=O)O)c2nc(C#CC3CC3)cc(=O)n2c1 [Compound 1224]
A (A denotes >20-fold),< 100,Cc1cc(C(C)Nc2ccccc2C(=O)O)c2nc(-c3cccc(F)c3)c(C3CC3)c(=O)n2c1 (centres unmarked) [Compound 1231]
A (A denotes >20-fold),< 100,Cc1cc(C(C)Nc2ccc(F)cc2C(=O)O)c2nc(-c3cccc(F)c3)c(C)c(=O)n2c1 (centres unmarked) [Compound 1238]
A (A denotes >20-fold),> 2000,Cc1cc(C(C)Nc2cccnc2C(=O)O)c2nc(-c3ccnc(C4CC4)c3)c(C)c(=O)n2c1 (centres unmarked) [Compound 1241]
A (A denotes >20-fold),,Cc1cccc(-c2nc3c(C(C)Nc4ccccc4C(=O)O)cc(C)cn3c(=O)c2C(C)C)c1 (centres unmarked) [Compound 1245]
A (A denotes >20-fold),100 to 500,Cc1cc(C(C)Nc2ccccc2S(N)(=O)=O)c2nc(-c3cccc(F)c3)c(C)c(=O)n2c1 (centres unmarked) [Compound 1248]
A (A denotes >20-fold),100 to 500,Cc1cc(C(C)Nc2ccccc2C(=O)O)c2nc(OC3CCCOC3)c(C)c(=O)n2c1 (centres unmarked) [Compound 1254]
A (A denotes >20-fold),< 100,Cc1cc(C(C)Nc2ccccc2C(=O)O)c2nc(-c3ccc(F)cc3)c(C#N)c(=O)n2c1 (centres unmarked) [Compound 1260]
A (A denotes >20-fold),100 to 500,Cc1cc(C(C)Nc2ccccc2S(N)(=O)=O)c2nc(-c3cccnc3)c(C3CC3)c(=O)n2c1 (centres unmarked) [Compound 1261]
A (A denotes >20-fold),< 100,CNC(=O)C#Cc1ccc(-c2nc3c([C@@H](C)Nc4ccccc4C(=O)O)cc(C)cn3c(=O)c2C)cc1F [Compound 1264]
C (C denotes ≤5-fold),> 2000,CNC(=O)C#Cc1ccc(-c2nc3c([C@H](C)Nc4ccccc4C(=O)O)cc(C)cn3c(=O)c2C)cc1F [Compound 1265]
C (C denotes ≤5-fold),,Cc1cc([C@H](C)Nc2ccccc2C(=O)O)c2nc(-c3ccc(C#CC4(C)CCC4)c(F)c3)c(C)c(=O)n2c1 [Compound 1267]
A (A denotes >20-fold),< 100,Cc1cc([C@@H](C)Nc2ccccc2C(=O)O)c2nc(-c3ccc(-c4ccc5c(c4)CCO5)c(F)c3)c(C)c(=O)n2c1 [Compound 1268]
C (C denotes ≤5-fold),> 2000,Cc1cc([C@H](C)Nc2ccccc2C(=O)O)c2nc(-c3ccc(-c4ccc5c(c4)CCO5)c(F)c3)c(C)c(=O)n2c1 [Compound 1269]
B (B denotes 20-fold≥value>5-fold),,COCC1=NC(C#N)C(NCc2ccc(-c3nc4c([C@H](C)Nc5ccccc5C(=O)O)cc(C)cn4c(=O)c3C)cc2F)O1 (some centres unmarked) [Compound 1271]
A (A denotes >20-fold),100 to 500,Cc1cc(C(C)Nc2ccccc2C(=O)O)c2nc(-c3cnc(C4CCOCC4)nc3)c(C)c(=O)n2c1 (centres unmarked) [Compound 1272]
A (A denotes >20-fold),100 to 500,Cc1cc([C@@H](C)Nc2ccccc2S(=O)(=O)O)c2nc(-c3ccc(C4CC4)cc3)c(C3CC3)c(=O)n2c1 [Compound 1274]
C (C denotes ≤5-fold),> 2000,Cc1cc([C@H](C)Nc2ccccc2S(=O)(=O)O)c2nc(-c3ccc(C4CC4)cc3)c(C3CC3)c(=O)n2c1 [Compound 1275]
C (C denotes ≤5-fold),< 100,Cc1cc([C@H](C)Nc2ccccc2C(=O)O)c2nc(-c3ccc(-c4ccc5oc(=O)n(C)c5c4)c(C)c3)c(C)c(=O)n2c1 [Compound 1276]
A (A denotes >20-fold),100 to 500,Cc1cc([C@@H](C)Nc2ccccc2C(=O)O)c2nc(-c3cccc(F)c3)c(C(C)C)c(=O)n2c1 [Compound 1277]
C (C denotes ≤5-fold),> 2000,Cc1cc([C@H](C)Nc2ccccc2C(=O)O)c2nc(-c3cccc(F)c3)c(C(C)C)c(=O)n2c1 [Compound 1278]
A (A denotes >20-fold),< 100,Cc1cc([C@@H](C)Nc2ccccc2C(=O)O)c2nc([C@H]3CCCOC3)c(C)c(=O)n2c1 [Compound 1279]

T47D pAKT S473 HTRF IC50 (H1047R): T47D (H1047R) selectivity over SKBR3 (WT),IC50 [nM],Structure (SMILES)
A (A denotes >20-fold),< 100,Cc1cc([C@@H](C)Nc2ccccc2C(=O)O)c2nc([C@@H]3CCCOC3)c(C)c(=O)n2c1 [Compound 1280]
B (B denotes 20-fold≥value>5-fold),500 to 2000,Cc1cc([C@H](C)Nc2ccccc2C(=O)O)c2nc([C@@H]3CCCOC3)c(C)c(=O)n2c1 [Compound 1281]
C (C denotes ≤5-fold),> 2000,Cc1cc([C@H](C)Nc2ccccc2C(=O)O)c2nc([C@H]3CCCOC3)c(C)c(=O)n2c1 [Compound 1282]
C (C denotes ≤5-fold),> 2000,Cc1cc([C@@H](C)Nc2ccccc2S(N)(=O)=O)c2nc(C3CCCOC3)c(C)c(=O)n2c1 (some centres unmarked) [Compound 1283]
A (A denotes >20-fold),< 100,Cc1cc([C@H](C)Nc2ccccc2S(N)(=O)=O)c2nc([C@@H]3CCCOC3)c(C)c(=O)n2c1 [Compound 1285]
B (B denotes 20-fold≥value>5-fold),500 to 2000,Cc1cc([C@H](C)Nc2ccccc2S(N)(=O)=O)c2nc([C@H]3CCCOC3)c(C)c(=O)n2c1 [Compound 1286]
C (C denotes ≤5-fold),,Cc1cc([C@@H](C)Nc2ccccc2S(N)(=O)=O)c2nc(C3CCN(CC(C)C)CC3)c(C)c(=O)n2c1 [Compound 1287]
A (A denotes >20-fold),100 to 500,CC(=O)N1CCC(c2ccc(-c3nc4c([C@@H](C)Nc5ccccc5C(=O)O)cc(C)cn4c(=O)c3C)cc2)CC1 [Compound 1289]
C (C denotes ≤5-fold),> 2000,CC(=O)N1CCC(c2ccc(-c3nc4c([C@H](C)Nc5ccccc5C(=O)O)cc(C)cn4c(=O)c3C)cc2)CC1 [Compound 1290]
A (A denotes >20-fold),100 to 500,COc1cc(-c2nc3c([C@@H](C)Nc4ccccc4C(=O)O)cc(C)cn3c(=O)c2C)cn2ncc(C#N)c12 [Compound 1291]
C (C denotes ≤5-fold),> 2000,COc1cc(-c2nc3c([C@H](C)Nc4ccccc4C(=O)O)cc(C)cn3c(=O)c2C)cn2ncc(C#N)c12 [Compound 1292]
A (A denotes >20-fold),100 to 500,Cc1cc(C(C)Nc2ccccc2C(=O)O)c2nc(C3CCCN(CC(F)F)C3)c(C)c(=O)n2c1 (centres unmarked) [Compound 1293]
B (B denotes 20-fold≥value>5-fold),500 to 2000,Cc1cc([C@@H](C)Nc2ccccc2S(N)(=O)=O)c2nc(-c3ccc(C4CCOCC4)nc3)c(C)c(=O)n2c1 [Compound 1294]
A (A denotes >20-fold),< 100,Cc1cc([C@H](C)Nc2ccccc2S(N)(=O)=O)c2nc(-c3ccc(C4CCOCC4)nc3)c(C)c(=O)n2c1 [Compound 1295]
A (A denotes >20-fold),100 to 500,Cc1cc([C@@H](C)Nc2ccccc2C(=O)O)c2nc(-c3cnc(C4CCOCC4)nc3)c(C)c(=O)n2c1 [Compound 1296]
C (C denotes ≤5-fold),> 2000,Cc1cc([C@H](C)Nc2ccccc2C(=O)O)c2nc(-c3cnc(C4CCOCC4)nc3)c(C)c(=O)n2c1 [Compound 1297]
A (A denotes >20-fold),< 100,Cc1cc([C@@H](C)Nc2ccccc2C(=O)O)c2nc(-c3ccc4ccnn4c3)c(C)c(=O)n2c1 [Compound 1298]
C (C denotes ≤5-fold),> 2000,Cc1cc([C@H](C)Nc2ccccc2C(=O)O)c2nc(-c3ccc4ccnn4c3)c(C)c(=O)n2c1 [Compound 1299]
A (A denotes >20-fold),< 100,Cc1cc(C(C)Nc2ccccc2C(=O)O)c2nc(-c3ccc(C4CCN(C(=O)C5CC5)CC4)c(F)c3)c(C)c(=O)n2c1 (centres unmarked) [Compound 1300]
C (C denotes ≤5-fold),> 2000,Cc1cc(C(C)Nc2ccccc2C(=O)O)c2nc(-c3ccc(C4CCNCC4)nc3)c(C)c(=O)n2c1 (centres unmarked) [Compound 1302]
C (C denotes ≤5-fold),> 2000,Cc1cc(C(C)Nc2ccccc2C(=O)O)c2nc(-c3ccc(C4CNC4)nc3)c(C)c(=O)n2c1 (centres unmarked) [Compound 1303]
B (B denotes 20-fold≥value>5-fold),500 to 2000,Cc1cc(C(C)Nc2ccccc2S(N)(=O)=O)c2nc(-c3ccc(C4CCNCC4)nc3)c(C)c(=O)n2c1 (centres unmarked) [Compound 1304]
